Each structure is given as a SMILES string.

The target in assay [1] is T1, HSP90a protein (Homo sapiens, UniProt P07900).
T1 construct: purchased BPS Bioscience 50298
In words: HSP90α-binding fluorescent polarization (FP) assay, BODIPY-labeled RNK04010 probe. To be noted: FP competition with RNK04010 (BODIPY-labeled), 5 nM, 300 min at 25° C. Here is the method:
HSP90α-Binding Fluorescent Polarization (FP) Assay
Binding of test compounds to HSP90a protein was measured by fluorescent polarization (FP) using the HSP90a (N-terminal) Assay Kit (BPS Bioscience, #50298), following the manufacturer's instructions, except as noted. Fluorescently labeled HSP90-binding compounds, either the provided FITC-geldanamycin (5 nM final concentration) or RNK04010, a triazolone-based HSP90 binding small molecule labeled with BODIPY through a piperizine-phenyl linker (5 nM final concentration) were employed. A 2.5-fold serial dilution of each test compound ranging from 20 μM to 5.2 nM was assayed for binding to HSP90a. After the final step of adding HSP90a protein to each assay well, plates were mixed by brief shaking, incubated at 25° C. for 120 min for FITC-geldanamycin or 300 min for RNK04010, and fluorescence was measured using a PerkinElmer EnVision Plate Reader.

For assay [2], the system named is MIA PaCa-2 human pancreatic carcinoma. In words: MIA PaCa-2 CCK-8 proliferation assay. Particulars: Homo sapiens, MIA PaCa-2, 72 h, MIA PaCa-2 cells. The class given is cell-based. Here is the method:
The following cancer cell lines were employed: BT-474 human breast carcinoma (ATCC, #HTB-20); MIA PaCa-2 human pancreatic carcinoma [2 copies KRAS(G12C)](ATCC, #CRL-1420); NCI-H23 human non-small cell lung cancer [1 copy KRAS(G12C)](ATCC, #CRL-5800); NCI-H358 human non-small cell lung cancer [1 copy KRAS(G12C)](ATCC, #CRL-5807); LU65A human lung carcinoma (Pharmaron, Beijing, China). Cell lines were cultured essentially according to ATCC and Pharmaron recommendations.
Cancer Cell Line Proliferation (CCK-8) Assays
3-fold serial dilutions of each test compound were prepared ranging from 20 μM to 1.02 nM.
% Inhibition=100−(D−B)/(S−B)*100%. • S: Absorbance of cells treated with DMSO • D: Absorbance of compound-treated cells • B: Absorbance of medium with DMSO without cells
(In general: Formazan colour is commonly taken as a measure of viable cells.)

The target of assay [3] is KRAS(G12C) (Homo sapiens, UniProt P01116, G12C). Briefly: KRAS(G12C)/SOS1 homogeneous time-resolved fluorescence (HTRF) assay. To be noted: absence of GTP, 4° C. for 3 hr, read-out: KRAS (G12C) binding. More on the design: purchased Cisbio 63ADK000CB16PEG. Here is the method:
KRAS(G12C)/SOS1 Homogeneous Time-Resolved Fluorescence (HTRF) Assay
Binding of test compounds to KRAS(G12C) protein, which in turn blocks KRAS(G12C) interaction with the SOS1 protein, was measured in the absences of GTP by homogeneous time-resolved fluorescence (HTRF) using the KRAS-G12C/SOS1 Binding Assay Kit (Cisbio, #63ADK000CB16PEG), following the manufacturer's instructions, except as noted. 3-fold serial dilutions of each test compound were prepared ranging from […] to 1.02 nM. The test compound was mixed and incubated with reaction components, incubated in a sealed plate at 4° C. for 3 hr and fluorescence was measured using a PerkinElmer Envision plate reader.
For orientation: In TR-FRET formats the signal depends on donor and acceptor labels being close together.

Sequence of KRAS(G12C) (P01116 1-188 isoform P01116-2 G12C): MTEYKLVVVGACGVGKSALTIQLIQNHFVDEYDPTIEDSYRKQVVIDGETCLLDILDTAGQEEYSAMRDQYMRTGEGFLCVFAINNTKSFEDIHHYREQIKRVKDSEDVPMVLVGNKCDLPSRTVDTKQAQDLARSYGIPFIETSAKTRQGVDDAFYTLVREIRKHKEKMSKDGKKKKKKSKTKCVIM

A word on the EC50: it is the concentration needed to bring the measured effect to its halfway point. A lower EC50 goes with an effect from little substance. In the case of `CCC(=O)N1CCN(c2nc(OCCN3CCN(C(=O)C4CCN(Cc5ccc(-n6c(C(=O)NCC(F)(F)F)nnc6-c6cc(C(C)C)c(O)cc6O)cc5)CC4)CC3)nc3c2CCN(c2cccc4cccc(Cl)c24)C3)C[C@@H]1CC#N` [Compound 208, (S)-4-(4-((4-(4-(2-((7-(8-chloronaphthalen-1-yl)-4-(3-(cyanomethyl)-4-propionylpiperazin-1-yl)-5,6,7,8-tetrahydropyrido[3,4-d]pyrimidin-2-yl)oxy)ethyl)piperazine-1-carbonyl)piperidin-1-yl)methyl)phenyl)-5-(2,4-dihydroxy-5-isopropylphenyl)-N-(2,2,2-trifluoroethyl)-4H-1,2,4-triazole-3-carboxamide], the IC50 in assay [1] was < 100 nM; in assay [3] it was > 1000 nM. Also, in assay [2], the EC50 is < 100 nM.
Take `C=CC(=O)N1CCN(c2nc(OC[C@@H]3C[C@H](NC(=O)C4CCN(Cc5ccc(-n6c(O)nnc6-c6cc(C(C)C)c(O)cc6O)cc5)CC4)CN3C)nc3c2CCN(c2cccc4cccc(Cl)c24)C3)C[C@@H]1CC#N` [Compound 214, N-((3S,5S)-5-(((4-((S)-4-acryloyl-3-(cyanomethyl)piperazin-1-yl)-7-(8-chloronaphthalen-1-yl)-5,6,7,8-tetrahydropyrido[3,4-d]pyrimidin-2-yl)oxy)methyl)-1-methylpyrrolidin-3-yl)-1-(4-(3-(2,4-dihydroxy-5-isopropylphenyl)-5-hydroxy-4H-1,2,4-triazol-4-yl)benzyl)piperidine-4-carboxamide]: the IC50 in assay [1] and in assay [3] was < 100 nM throughout. The compound also had a concentration giving a half-maximal response (EC50) in assay [2] of 100 to 1000 nM.
For `C=CC(=O)N1CCN(c2nc(OCC3CCC(CN4CCC(Cc5ccc(-n6c(C(=O)NCC(F)(F)F)nnc6-c6cc(C(C)C)c(O)cc6O)cc5)CC4)N3)nc3c2CCN(c2cccc4cccc(Cl)c24)C3)C[C@@H]1CC#N` (stereo partly drawn) [Compound 298, 4-(4-((1-((5-(((4-((S)-4-acryloyl-3-(cyanomethyl)piperazin-1-yl)-7-(8-chloronaphthalen-1-yl)-5,6,7,8-tetrahydropyrido[3,4-d]pyrimidin-2-yl)oxy)methyl)pyrrolidin-2-yl)methyl)piperidin-4-yl)methyl)phenyl)-5-(2,4-dihydroxy-5-isopropylphenyl)-N-(2,2,2-trifluoroethyl)-4H-1,2,4-triazole-3-carboxamide], the IC50 in assay [1] was < 100 nM; in assay [3], > 1000 nM. Also, in assay [2], the concentration for a half-maximal effect (EC50) was 100 to 1000 nM.
On to `C=CC(=O)N1CCN(c2nc(OC[C@@H]3CC[C@H](C(=O)N4CCN(C(=O)C5CCN(Cc6ccc(-n7c(C(=O)NCC(F)(F)F)nnc7-c7cc(C(C)C)c(O)cc7O)cc6)CC5)CC4)N3C)nc3c2CCN(c2cccc4cccc(Cl)c24)C3)C[C@@H]1CC#N` [Compound 304, 4-{4-[(4-{4-[(2R,5S)-5-({[7-(8-chloronaphthalen-1-yl)-4-[(3S)-3-(cyanomethyl)-4-(prop-2-enoyl)piperazin-1-yl]-5H,6H,8H-pyrido[3,4-d]pyrimidin-2-yl]oxy}methyl)-1-methylpyrrolidine-2-carbonyl]piperazine-1-carbonyl}piperidin-1-yl)methyl]p-henyl}-5-(2,4-dihydroxy-5-isopropylphenyl)-N-(2,2,2-trifluoroethyl)-1,2,4-triazole-3-carboxamide], for which the IC50 in assay [1] was < 100 nM; in assay [3], 100 to 1000 nM. The concentration giving a half-maximal response (EC50) in assay [2] is < 100 nM.
For `C=CC(=O)N1CCN(c2nc(OC[C@@H]3C[C@@H](NC(=O)c4ccc(-n5c(O)nnc5-c5cc(C(C)C)c(O)cc5O)cc4)CN3C)nc3c2CCN(c2cccc4cccc(Cl)c24)C3)C[C@@H]1CC#N` [Compound 196, N-((3R,5S)-5-(((4-((S)-4-acryloyl-3-(cyanomethyl)piperazin-1-yl)-7-(8-chloronaphthalen-1-yl)-5,6,7,8-tetrahydropyrido[3,4-d]pyrimidin-2-yl)oxy)methyl)-1-methylpyrrolidin-3-yl)-4-(3-(2,4-dihydroxy-5-isopropylphenyl)-5-hydroxy-4H-1,2,4-triazol-4-yl)benzamide, trifluoroacetic acid], the IC50 in assay [1] was < 100 nM; in assay [3], 100 to 1000 nM. The EC50 in assay [2] was > 1000 nM.
With `C=C(F)C(=O)N1CCN(c2nc(OCCN3CCN(C(=O)C4CCN(Cc5ccc(-n6c(C(=O)NCC(F)(F)F)nnc6-c6cc(C(C)C)c(O)cc6O)cc5)CC4)CC3)nc3c2CCN(c2cccc4cccc(Cl)c24)C3)C[C@@H]1CC#N` [Compound 207, (S)-4-(4-((4-(4-(2-((7-(8-chloronaphthalen-1-yl)-4-(3-(cyanomethyl)-4-(2-fluoroacryloyl)piperazin-1-yl)-5,6,7,8-tetrahydropyrido[3,4-d]pyrimidin-2-yl)oxy)ethyl)piperazine-1-carbonyl)piperidin-1-yl)methyl)phenyl)-5-(2,4-dihydroxy-5-isopropylphenyl)-N-(2,2,2-trifluoroethyl)-4H-1,2,4-triazole-3-carboxamide], the results for the IC50 in assay [1] and in assay [3] were < 100 nM and 100 to 1000 nM, respectively. Besides, the concentration giving a half-maximal response (EC50) in assay [2] is < 100 nM.
`C=CC(=O)N1CCN(c2nc(OC[C@H]3CC[C@@H](C(=O)N4CCN(C(=O)C5CCN(Cc6ccc(-n7c(O)nnc7-c7cc(C(C)C)c(O)cc7O)cc6)CC5)CC4)N3C)nc3c2CCN(c2cccc4cccc(Cl)c24)C3)C[C@@H]1CC#N` [Compound 342, 2-[(2S)-4-[7-(8-chloronaphthalen-1-yl)-2-{[(2R,5S)-5-{4-[1-({4-[3-(2,4-dihydroxy-5-isopropylphenyl)-5-hydroxy-1,2,4-triazol-4-yl]phenyl}methyl)piperidine-4-carbonyl]piperazine-1-carbonyl}-1-methylpyrrolidin-2-yl]methoxy}-5H,6H,8H-pyri-do[3,4-d]pyrimidin-4-yl]-1-(prop-2-enoyl)piperazin-2-yl]acetonitrile]: the IC50 in assay [1] and in assay [3] was < 100 nM in each case. The compound also returned a half-maximal effective concentration (EC50) in assay [2] of 100 to 1000 nM.
Consider `C=CC(=O)N1CCN(c2nc(OC[C@@H]3C[C@H](C(=O)N4CCN(CCNC(=O)c5nnc(-c6cc(C(C)C)c(O)cc6O)n5-c5ccccc5)CC4)CN3C)nc3c2CCN(c2cccc4cccc(Cl)c24)C3)C[C@@H]1CC#N` [Compound 343, N-(2-{4-[(3S,5S)-5-({[7-(8-chloronaphthalen-1-yl)-4-[(3S)-3-(cyanomethyl)-4-(pr-op-2-enoyl)piperazin-1-yl]-5H,6H,8H-pyrido[3,4-d]pyrimidin-2-yl]oxy}methyl)-1-methylpyrrolidine-3-carbonyl]piperazin-1-yl}ethyl)-5-(2,4-dihydroxy-5-isopropylphenyl)-4-phenyl-1,2,4-triazole-3-carboxamide], for which the IC50 in assay [1] and in assay [3] was < 100 nM in each case. For the same compound, the EC50 in assay [2] is 100 to 1000 nM.
Turning to `C=CC(=O)N1CCN(c2nc(OCCN3CCC(C(=O)N4CCC(CN5CCC(Cc6ccc(-n7c(O)nnc7-c7cc(O)c(C(C)C)cc7O)cc6)CC5)CC4)CC3)nc3c2CCN(c2cccc4cccc(Cl)c24)C3)C[C@@H]1CC#N` [Compound 238, (S)-2-(1-acryloyl-4-(7-(8-chloronaphthalen-1-yl)-2-(2-(4-(4-((4-(4-(3-(2,5-dihydroxy-4-isopropylphenyl)-5-hydroxy-4H-1,2,4-triazol-4-yl)benzyl)piperidin-1-yl)methyl)piperidine-1-carbonyl)piperidin-1-yl)ethoxy)-5,6,7,8-tetrahydropyrido[3,4-d]pyrimidin-4-yl)piperazin-2-yl)acetonitrile], in assay [2], the EC50 was > 1000 nM. Also, in assay [3], the IC50 lay in the range of 100 to 1000 nM.
For `C=CC(=O)N1CCN(c2nc(OCCN3CCN(C4CCN(Cc5ccc(-n6c(O)nnc6-c6cc(C)c(O)cc6O)cc5)CC4)CC3)nc3c2CCN(c2cccc4cccc(Cl)c24)C3)C[C@@H]1CC#N` [Compound 267, (S)-2-(1-acryloyl-4-(7-(8-chloronaphthalen-1-yl)-2-(2-(4-(1-(4-(3-(2,4-dihydroxy-5-methylphenyl)-5-hydroxy-4H-1,2,4-triazol-4-yl)benzyl)piperidin-4-yl)piperazin-1-yl)ethoxy)-5,6,7,8-tetrahydropyrido[3,4-d]pyrimidin-4-yl)piperazin-2-yl)acetonitrile], the EC50 in assay [2] was > 1000 nM. In assay [3], the IC50 is < 100 nM.

Source of the values: patent US20230391772A1, “METHODS AND COMPOSITIONS FOR TARGETED PROTEIN DEGRADATION” (Ranok Therapeutics (Hangzhou) Co. Ltd., priority 2020, published 2023).
